pIC50: −log10 of the molar value. Calls of active or inactive are those of the source. The calls are words filed in the database; no cut-off is given here.
Columns and labels:
[1] = test system: MCF7; assay: cells; details: Homo sapiens, MCF7, 72 h
Description: Growth inhibition of human MCF7 cells after 72 hrs by MTT assay

[2] = test system: MCF-10A; assay: Growth inhibition of human MCF10A cells after 72 hrs by MTT assay; type: cell-based
[3] = target: T1, Estrogen receptor (Homo sapiens) (UniProt P03372); assay: Antagonist activity at ERalpha in human MCF7 cells at 5 uM after 24 hrs by luciferase reporter gene assay relative to control; type: cell-based
T1 sequence (whole entry): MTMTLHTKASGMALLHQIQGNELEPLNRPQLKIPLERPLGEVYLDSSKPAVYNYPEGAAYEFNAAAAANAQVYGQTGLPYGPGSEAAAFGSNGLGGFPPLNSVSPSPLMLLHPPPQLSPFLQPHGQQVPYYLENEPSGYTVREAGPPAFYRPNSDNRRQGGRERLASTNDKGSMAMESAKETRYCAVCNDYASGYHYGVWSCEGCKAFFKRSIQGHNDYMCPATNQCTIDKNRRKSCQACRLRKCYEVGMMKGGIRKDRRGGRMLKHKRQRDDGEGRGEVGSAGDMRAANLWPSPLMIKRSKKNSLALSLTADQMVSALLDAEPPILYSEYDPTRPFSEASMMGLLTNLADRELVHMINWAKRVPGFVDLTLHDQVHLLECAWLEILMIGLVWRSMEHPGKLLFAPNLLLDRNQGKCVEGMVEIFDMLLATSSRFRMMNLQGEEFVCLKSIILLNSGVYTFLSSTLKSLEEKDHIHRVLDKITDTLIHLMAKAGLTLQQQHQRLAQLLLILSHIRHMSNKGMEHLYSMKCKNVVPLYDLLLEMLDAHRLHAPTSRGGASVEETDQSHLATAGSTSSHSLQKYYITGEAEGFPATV

[4] = test system: MCF7; assay: Growth inhibition of human MCF7 cells at <25 uM after 72 hrs by MTT assay relative to control; type: functional
[5] = Growth inhibition of human MCF10A cells at <25 uM after 72 hrs by MTT assay relative to control; type: cell-based, MCF-10A; details: read-out: GI

Row | pIC50 [1] | inhibition [3] | SMILES | pIC50 [2] | growth inhibition (GI) [4] | inhibition at 72 h [5]
1 | 6.68 | Active | CC(O)[C@@]12C[C@@H]1C[C@H]1[C@@H]3CCc4cc(O)ccc4[C@H]3CC[C@@]12C (mixture of isomers) | 5.51 |  | 
2 |  | inactive | COc1ccc2c(c1)CC[C@@H]1[C@@H]2CC[C@@]2(C)[C@H]1C[C@H]1CCCC[C@]12C(C)O (mixture of isomers) |  |  | 
3 | 5.34 | inactive | CC(O)C1=CC[C@H]2[C@@H]3CCc4cc(O)ccc4[C@H]3CC[C@]12C (mixture of isomers) | 4.72 |  | 
4 | 4.80 | Active | CC(=O)[C@@]12CCCC[C@@H]1C[C@H]1[C@@H]3CCc4cc(O)ccc4[C@H]3CC[C@@]12C |  |  | < 50%
5 | 5.34 | Active | C[C@H](O)[C@@]12CCCC[C@@H]1C[C@H]1[C@@H]3CCc4cc(O)ccc4[C@H]3CC[C@@]12C | 4.64 |  | 
6 | 5.28 |  | CC/C(=C(\c1ccccc1)c1ccc(OCCN(C)C)cc1)c1ccccc1 [TAMOXIFEN] |  |  | < 50%
7 | 5.17 | 70% | C[C@@H](O)[C@@]12CCCC[C@@H]1C[C@H]1[C@@H]3CCc4cc(O)ccc4[C@H]3CC[C@@]12C |  |  | < 50%
8 | 6.82 | Active | C[C@@H](O)[C@H]1CC[C@H]2[C@@H]3CCc4cc(O)ccc4[C@H]3CC[C@]12C | 5.23 |  | 
9 |  | inactive | COc1ccc2c(c1)CC[C@@H]1[C@@H]2CC[C@@]2(C)[C@H]1C[C@H]1CCCC[C@]12C(C)=O |  | <50% | < 50%

Row | SMILES | pIC50 [1] | inhibition [3] | pIC50 [2] | growth inhibition (GI) [4] | inhibition at 72 h [5]
10 | CC(=O)[C@H]1CC[C@H]2[C@@H]3CCc4cc(O)ccc4[C@H]3CC[C@]12C |  | inactive |  | <50% | < 50%
